# Source: patent US10351576B2, “Fused tricyclic pyrazole derivatives useful for farnesoid X receptors” (NOVARTIS AG, priority 2015, dated 2019)
# Target: T1, human Farnesoid X Receptor (FXR) ligand binding domain (GST-FXR LBD) (Homo sapiens, UniProt Q96RI1)
# T1 construct: purchased Invitrogen
# T1 sequence (Q96RI1 193-472 isoform Q96RI1-2): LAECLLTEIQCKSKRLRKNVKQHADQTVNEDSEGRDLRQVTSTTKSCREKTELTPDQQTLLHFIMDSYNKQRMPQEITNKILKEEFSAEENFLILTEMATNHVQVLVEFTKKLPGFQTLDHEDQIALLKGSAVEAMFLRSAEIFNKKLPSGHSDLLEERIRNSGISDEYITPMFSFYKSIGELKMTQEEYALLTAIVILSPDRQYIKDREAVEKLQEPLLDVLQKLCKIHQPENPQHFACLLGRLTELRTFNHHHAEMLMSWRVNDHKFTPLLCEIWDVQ
# Experiment: Human GST-FXR LBD co-activator interaction assay (FXR HTRF assay)
# Type: biochemical
# Conditions: ligand-dependent interaction of GST-FXR LBD with biotin-labeled SRC-1 peptide, response relative to GW4064, read-out: FXR coactivator interaction assay (HTRF)
# From the text: Human GST-FXR LBD Co-Activator Interaction Assay
# The FXR HTRF assay is a biochemical assay measuring the interaction between FXR and a coactivator protein (SRC1). The ligand-induced interaction with a coactivator protein is a critical step in transcriptional activation by FXR. Thus, this is an assay designed to measure FXR agonist activity of the test compounds.
# Recombinant human Farnesoid X Receptor (FXR) ligand binding domain (amino acids 193-472) fused to glutathione S-transferase (GST) purified protein (GST-FXR LBD) was purchased (Invitrogen). The ligand-dependent interaction between GST-FXR LBD and a peptide derived from Steroid Receptor Coactivator-1 (SRC-1) was monitored by Fluorescence Resonance Energy Transfer (FRET). […] Test compounds (in DMSO solution) and detection reagents (anti-GST-Cryptate labeled antibody and Streptavidin-XL665 conjugate; CisBio) were added in assay buffer containing 50 mM KF. Plates are incubated at room temperature in the dark for 2.5 hrs before reading on an Envision (PerkinElmer) at 665 nm and 590 nm. The HTRF assay results were calculated from the 665 nm/590 nm ratio (ratio=(A665 nm/A590 nm)×10^4) and expressed in Delta F %=(Ratiosample−Rationegative)/Rationegative×100.
# A negative control (without Streptavidin-XL665) was run with each assay and represented the background fluorescence. A reference FXR agonist, (E)-3-(2-chloro-4-((3-(2,6-dichlorophenyl)-5-isopropylisoxazol-4-yl)methoxy)styryl)benzoic acid (Compound GW4064), was included in each experiment as positive control. The efficacy of each test compound was compared to that of GW4064. At each concentration, the relative activity of the test compound was expressed as Response %=(Rsample−RDMSO)/(Rpositive−RDMSO), where Rsample is the HTRF response (expressed in Delta F %) for the test compound, Rpositive is the maximal response for GW4064 at saturating concentrations, and RDMSO is the response for DMSO control. The EC50 values were calculated using GraphPad Prism (GraphPad Software) using non-linear regression curve fit (log(agonist) vs. response—variable slope (four parameters)).
row,Compound,EC50 [nM]
1,"Cn1nc(C(=O)N(CC(=O)NCC2CC2)Cc2ccccc2F)c2c1-c1cc(Cl)ccc1OC2 [Compound 3, 2-(1-{8-chloro-1-methyl-1H,4H-chromeno[4,3-c]pyrazol-3-yl}-N-[(2-fluorophenyl)methyl]formamido)-N-(cyclopropylmethyl)acetamide]",1
2,"CC(C)NC(=O)CN(Cc1cc(F)ccc1F)C(=O)c1nn(C)c2c1COc1ccc(Cl)cc1-2 [Compound 26, 2-(1-{8-chloro-1-methyl-1H,4H-chromeno[4,3-c]pyrazol-3-yl}-N-[(2,5-difluorophenyl)methyl]formamido)-N-(propan-2-yl)acetamide]",84
3,"Cn1nc(C(=O)N(CC(=O)NC2CCC(O)CC2)Cc2ccccc2F)c2c1-c1cc(Cl)ccc1OC2 (stereo not shown) [Compound 38, 2-(1-{8-chloro-1-methyl-1H,4H-chromeno[4,3-c]pyrazol-3-yl}-N-[(2-fluorophenyl)methyl]formamido)-N-(4-hydroxycyclohexyl)acetamide]",717
4,"Cn1nc(C(=O)N(CC(=O)NCC2CC2)Cc2c(F)cccc2F)c2c1-c1cc(Cl)ccc1OC2 [Compound 5, 2-(1-{8-chloro-1-methyl-1H,4H-chromeno[4,3-c]pyrazol-3-yl}-N-[(2,6-difluorophenyl)methyl]formamido)-N-(cyclopropylmethyl)acetamide]",13
5,"CC(C)NC(=O)CN(Cc1cccc(F)c1)C(=O)c1nn(C)c2c1COc1ccc(Cl)cc1-2 [Compound 15, 2-(1-{8-chloro-1-methyl-1H,4H-chromeno[4,3-c]pyrazol-3-yl}-N-[(3-fluorophenyl)methyl]formamido)-N-(propan-2-yl)acetamide]",27
6,"Cn1nc(C(=O)N(CC(=O)NC2CC2)Cc2cccc(F)c2F)c2c1-c1cc(Cl)ccc1OC2 [Compound 22, 2-(1-{8-chloro-1-methyl-1H,4H-chromeno[4,3-c]pyrazol-3-yl}-N-[(2,3-difluorophenyl)methyl]formamido)-N-cyclopropylacetamide]",60
7,"CC(C)NC(=O)CN(Cc1cccc(F)c1F)C(=O)c1nn(C)c2c1COc1ccc(Cl)cc1-2 [Compound 42, 2-(1-{8-chloro-1-methyl-1H,4H-chromeno[4,3-c]pyrazol-3-yl}-N-[(2,3-difluorophenyl)methyl]formamido)-N-(propan-2-yl)acetamide]",631
8,"CC(C)NC(=O)CN(Cc1cc(F)cc(F)c1)C(=O)c1nn(C)c2c1COc1ccc(Br)cc1-2 [Compound 13, 2-(1-{8-bromo-1-methyl-1H,4H-chromeno[4,3-c]pyrazol-3-yl}-N-[(3,5-difluorophenyl)methyl]formamido)-N-(propan-2-yl)acetamide]",34
9,"Cn1nc(C(=O)N(CC(=O)NC2CCS(=O)(=O)C2)Cc2ccccc2F)c2c1-c1cc(Cl)ccc1OC2 (stereo not shown) [Compound 39, 8-chloro-N-(2-((1,1-dioxidotetrahydrothiophen-3-yl)amino)-2-oxoethyl)-N-(2-fluorobenzyl)-1-methyl-1,4-dihydrochromeno[4,3-c]pyrazole-3-carboxamide]",482
10,"Cn1nc(C(=O)N(CC(=O)NCC2CCOC2)Cc2ccccc2F)c2c1-c1cc(Cl)ccc1OC2 (stereo not shown) [Compound 7, 2-(1-{8-chloro-1-methyl-1H,4H-chromeno[4,3-c]pyrazol-3-yl}-N-[(2-fluorophenyl)methyl]formamido)-N-(oxolan-3-ylmethyl) acetamide]",18
11,"Cn1nc(C(=O)N(CC(=O)NC2CC2(F)F)Cc2ccccc2F)c2c1-c1cc(Cl)ccc1OC2 (stereo not shown) [Compound 23, 2-(1-{8-chloro-1-methyl-1H,4H-chromeno[4,3-c]pyrazol-3-yl}-N-[(2-fluorophenyl)methyl]formamido)-N-(2,2-difluorocyclopropyl)acetamide]",87
12,"CC(C)NC(=O)CN(Cc1cc(F)ccc1F)C(=O)c1nn(C)c2c1COc1ccc(Br)cc1-2 [Compound 16, 2-(1-{8-bromo-1-methyl-1H,4H-chromeno[4,3-c]pyrazol-3-yl}-N-[(2,5-difluorophenyl)methyl]formamido)-N-(propan-2-yl)acetamide]",49
13,"Cn1nc(C(=O)N(CC(=O)NCC2CCCO2)Cc2ccccc2F)c2c1-c1cc(Cl)ccc1OC2 (stereo not shown) [Compound 31, 2-(1-{8-chloro-1-methyl-1H,4H-chromeno[4,3-c]pyrazol-3-yl}-N-[(2-fluorophenyl)methyl]formamido)-N-(oxolan-2-ylmethyl)acetamide]",124
14,"Cn1nc(C(=O)N(CC(=O)NC2CC2)Cc2cccc(F)c2)c2c1-c1cc(Cl)ccc1OC2 [Compound 27, 2-(1-{8-chloro-1-methyl-1H,4H-chromeno[4,3-c]pyrazol-3-yl}-N-[(3-fluorophenyl)methyl]formamido)-N-cyclopropylacetamide]",61
15,"Cn1nc(C(=O)N(CC(=O)NCCF)Cc2cccc(F)c2)c2c1-c1cc(Cl)ccc1OC2 [Compound 9, 2-(1-{8-chloro-1-methyl-1H,4H-chromeno[4,3-c]pyrazol-3-yl}-N-[(3-fluorophenyl)methyl]formamido)-N-(2-fluoroethyl)acetamide]",3
16,"Cn1nc(C(=O)N(CC(=O)Nc2ccc(C(=O)N3CCOCC3)cc2)Cc2ccccc2F)c2c1-c1cc(Cl)ccc1OC2 [Compound 20, 2-(1-{8-chloro-1-methyl-1H,4H-chromeno[4,3-c]pyrazol-3-yl}-N-[(2-fluorophenyl)methyl]formamido)-N-[4-(morpholine-4-carbonyl)phenyl]acetamide]",246
17,"Cn1nc(C(=O)N(CC(=O)NCCF)Cc2ccccc2F)c2c1-c1cc(Cl)ccc1OC2 [Compound 11, 2-(1-{8-chloro-1-methyl-1H,4H-chromeno[4,3-c]pyrazol-3-yl}-N-[(2-fluorophenyl)methyl]formamido)-N-(2-fluoroethyl)acetamide]",13

# The remaining lines, values ahead:
row,EC50 [nM],Compound
1,18,"CC(C)C(=O)NCCN(Cc1cccc(F)c1)C(=O)c1nn(C)c2c1COc1ccc(Br)cc1-2 [Compound 62, 8-bromo-N-(3-fluorobenzyl)-N-(2-isobutyramidoethyl)-1-methyl-1,4-dihydrochromeno[4,3-c]pyrazole-3-carboxamide]"
2,442,"Cn1nc(C(=O)N(Cc2ccccc2)Cc2ccc(C(N)=O)cc2)c2c1-c1cc(Cl)ccc1OC2 [Compound 53, N-benzyl-N-(4-carbamoylbenzyl)-8-chloro-1-methyl-1,4-dihydrochromeno[4,3-c]pyrazole-3-carboxamide]"
3,61,"C[C@@H](C(=O)NCC1CC1)N(Cc1ccccc1F)C(=O)c1nn(C)c2c1COc1ccc(Cl)cc1-2 [Compound 80, (2S)-2-(1-{8-chloro-1-methyl-1H,4H-chromeno[4,3-c]pyrazol-3-yl}-N-[(2-fluorophenyl)methyl]formamido)-N-(cyclopropylmethyl)propanamide]"
4,605,"Cn1nc(C(=O)N(Cc2ccccc2)Cc2ccc(S(C)(=O)=O)cc2)c2c1-c1cc(Cl)ccc1OC2 [Compound 56, N-benzyl-8-chloro-N-[(4-methanesulfonylphenyl)methyl]-1-methyl-1H,4H-chromeno[4,3-c]pyrazole-3-carboxamide]"
5,1810,"Cn1nc(C(=O)N(CCNC(=O)NCC2CC2)Cc2ccccc2F)c2c1-c1cc(Cl)ccc1OC2 [Compound 60, 8-chloro-N-(2-(3-(cyclopropylmethyl)ureido)ethyl)-N-(2-fluorobenzyl)-1-methyl-1,4-dihydrochromeno[4,3-c]pyrazole-3-carboxamide]"
6,75,"Cn1nc(C(=O)N(CC(=O)NCC2(O)CC2)Cc2ccccc2F)c2c1-c1cc(Cl)ccc1OC2 [Compound 48, 2-(1-{8-chloro-1-methyl-1H,4H-chromeno[4,3-c]pyrazol-3-yl}-N-[(2-fluorophenyl)methyl]formamido)-N-[(1-hydroxycyclopropyl)methyl]acetamide]"
7,695,"CC(C)S(=O)(=O)NCCN(Cc1ccccc1)C(=O)c1nn(C)c2c1COc1ccc(Br)cc1-2 [Compound 64, N-benzyl-8-bromo-1-methyl-N-[2-(propane-2-sulfonamido)ethyl]-1H,4H-chromeno[4,3-c]pyrazole-3-carboxamide]"
8,266,"CNS(=O)(=O)c1ccc(CN(Cc2ccccc2)C(=O)c2nn(C)c3c2COc2ccc(Cl)cc2-3)cc1 [Compound 54, N-benzyl-8-chloro-1-methyl-N-{[4-(methylsulfamoyl)phenyl]methyl}-1H,4H-chromeno[4,3-c]pyrazole-3-carboxamide]"
